# From publication PMC12280126, “Potent β-lactam-based tyrosyl-DNA phosphodiesterase 1 inhibitors identified by a virtual screen” (Scientific Reports, 2025)
# “And” between values parts separate entries of the source, which are not always exact repeats. Equal values may be shown once. Where a name gives a salt, the structure may show the parent alone.
# Molecular target: T1, recombinant TDP1 (Homo sapiens, UniProt Q9NUW8)
# T1 construct: incubated with 40 pM full-length recombinant TDP1 or TDP1 (148–608)
# Assay: in vitro gel-based fluorescence TDP1 catalytic assay
# Format: biochemical
# Conditions: 40 pM recombinant TDP1, 1 nM N14Y DNA substrate, 15 min, room temperature; read-out: TDP1 IC50
# Experimental: We subjected select virtual screen hits to evaluation of TDP1 inhibitory potencies using in vitro gel-based fluorescence TDP1 catalytic assays (Fig. 2). […] To further explore this class of compounds, we purchased from TargetMol a library of approximately 90 β-lactams as 10 mM solutions in DMSO. […] We examined TDP1 inhibitory potencies of the compounds using the in vitro gel-based fluorescence assays as previously described[21]–[24]. Briefly, a 5’-Cy5-labeled DNA substrate (N14Y, 5’-Cy5-[…]-pY-3’, 1 nM) was incubated in TDP1 reaction buffer with recombinant TDP1 or truncated TDP1(148–608) (40 pM) in the absence or presence of inhibitors for 15 min at room temperature. […] The TDP1 inhibition IC50 values were calculated based on gel images of the cleavage product (N14P, 5’-Cy5-[…]-p-3’) (Fig. 3A and Table S2).
# The inhibition of TDP1 and TDP2 were conducted according to gel-based methods as previously described[21]–[24],[45]. Briefly, 1 nM of the DNA substrate (N14Y, 5´Cy5-[…]-pY-3´) was incubated with 40 pM full-length recombinant TDP1 or TDP1 (148–608) in the absence or presence of inhibitors for 15 min at room temperature in TDP1 reaction buffer (50 mM Tris-HCl, pH 7.5, 80 mM KCl, 2 mM EDTA, 1 mM DTT, 40 µg/mL BSA and 0.01% Tween 20). The inhibition of TDP2 was also conducted by using similar conditions. […] The reactions of both TDP1 and TDP2 were stopped by adding an equal volume of gel loading buffer (99.5% (v/v) formamide, 5 mM EDTA). The samples were then subjected to a 20% denaturing PAGE gel followed by gel scanning using a Typhoon FLA 9500 scanner (GE Healthcare). The IC50 values of the TDP1 inhibitors were calculated by comparing the percentage of the cleavage product (N14P, 5´Cy5-[…]-p-3´) produced to that in the DMSO control. The IC50 values of the TDP2 inhibitors were calculated by comparing the percentage of the cleavage product (PN18, 5’-p-[…]-Cy5-3’) produced to that in the DMSO control.
# T1 sequence (Q9NUW8 whole entry): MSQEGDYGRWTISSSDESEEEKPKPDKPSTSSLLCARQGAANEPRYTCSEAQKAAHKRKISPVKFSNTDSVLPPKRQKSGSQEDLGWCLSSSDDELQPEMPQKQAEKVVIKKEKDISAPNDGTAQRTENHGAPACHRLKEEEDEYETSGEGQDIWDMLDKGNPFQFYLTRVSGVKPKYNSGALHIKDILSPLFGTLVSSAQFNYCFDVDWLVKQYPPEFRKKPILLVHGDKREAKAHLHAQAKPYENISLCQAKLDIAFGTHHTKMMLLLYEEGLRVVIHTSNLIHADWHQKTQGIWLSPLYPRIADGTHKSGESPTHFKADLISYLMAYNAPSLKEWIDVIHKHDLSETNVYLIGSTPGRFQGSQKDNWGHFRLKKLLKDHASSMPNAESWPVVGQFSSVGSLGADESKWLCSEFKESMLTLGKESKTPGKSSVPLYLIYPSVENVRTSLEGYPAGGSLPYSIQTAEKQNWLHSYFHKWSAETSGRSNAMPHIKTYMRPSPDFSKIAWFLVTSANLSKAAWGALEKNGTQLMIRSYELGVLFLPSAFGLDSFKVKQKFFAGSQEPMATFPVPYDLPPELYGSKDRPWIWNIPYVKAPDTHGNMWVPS
row,IC50,SMILES
1,> 1 mM,"CN(C)CCn1nnnc1SCC1=C(C(=O)O)N2C(=O)[C@@H](NC(=O)Cc3csc(N)n3)[C@H]2SC1 [LE8, Cefotiam hydrochloride]"
2,> 1 mM,"CO/N=C(\C(=O)N[C@@H]1C(=O)N2C(C(=O)O)=C(CSc3nc(=O)c(=O)[nH]n3C)CS[C@H]12)c1csc(N)n1 [LG2, Ceftriaxone sodium]"
3,0.53 mM,"Cc1nnc(SCC2=C(C(=O)O)N3C(=O)[C@@H](NC(=O)Cn4cnnn4)[C@H]3SC2)s1 [LH10, Cefazolin sodium salt]"
4,> 1 mM,"CC1(C)S[C@@H]2[C@H](/N=C/N3CCCCCC3)C(=O)N2[C@H]1C(=O)O [LE6, Mecillinam]"
5,> 1 mM,"CO/N=C(\C(=O)N[C@@H]1C(=O)N2C(C(=O)O)=C(CSc3nc(C)c(CC(=O)O)s3)CS[C@H]12)c1csc(N)n1 [LA5, Cefodizime Sodium]"
6,> 1 mM,"CCN1CCN(C(=O)N[C@@H](C(=O)N[C@@H]2C(=O)N3[C@@H]2SC(C)(C)[C@@H]3C(=O)O)c2ccccc2)C(=O)C1=O [LG3, Piperacillin sodium salt]"
7,> 1 mM,"CC1(C)S[C@@H]2[C@H](NC(=O)C(C(=O)O)c3ccccc3)C(=O)N2[C@H]1C(=O)O (some centres unmarked) [LG5, Carbenicillin disodium]"
8,0.179 mM and 0.18 mM,"CO[C@@]1(NC(=O)C(C(=O)O)c2ccc(O)cc2)C(=O)N2C(C(=O)O)=C(CSc3nnnn3C)CO[C@@H]21 (some centres unmarked) [LC4, Latamoxef sodium]"
9,0.379 mM,"CO[C@@]1(NC(=O)C2SC(=C(C(N)=O)C(=O)O)S2)C(=O)N2C(C(=O)O)=C(CSc3nnnn3C)CS[C@@H]21 (some centres unmarked) [LB4, Cefotetan]"
10,0.62 ± 0.061 mM,"C[C@H]1[C@H](NC(=O)/C(=N\OC(C)(C)C(=O)O)c2csc(N)n2)C(=O)N1S(=O)(=O)O [LH3, Aztreonam]"
11,> 1 mM,"CCOc1ccc2ccccc2c1C(=O)N[C@@H]1C(=O)N2[C@@H]1SC(C)(C)[C@@H]2C(=O)O [LF5, nafcillin sodium]"
12,> 1 mM,"C=CC1=C(C(=O)O)N2C(=O)[C@@H](NC(=O)/C(=N\O)c3csc(N)n3)[C@H]2SC1 [LB10, Cefdinir]"
13,> 1 mM,"CC1(C)S[C@@H]2[C@H](NC(=O)[C@H](C(=O)O)c3ccsc3)C(=O)N2[C@H]1C(=O)O [LB5, Ticarcillin sodium]"
14,> 1 mM,"CC(=O)OCC1=C(C(=O)O)N2C(=O)[C@@H](NC(=O)CSC(=NC(C)C)NC(C)C)[C@H]2SC1 [LA4, Cefathiamidine]"
15,> 1 mM,"CCN1CCN(C(=O)N[C@@H](C(=O)N[C@@H]2C(=O)N3C(C(=O)O)=C(CSc4nnnn4C)CS[C@H]23)c2ccc(O)cc2)C(=O)C1=O [LB8, Cefoperazone]"
16,> 1 mM,"CCO/N=C(\C(=O)N[C@@H]1C(=O)N2C(C(=O)[O-])=C(Sc3nc(-c4cc[n+](C)cc4)cs3)CS[C@H]12)c1nsc(NP(=O)(O)O)n1 [LA11, Ceftaroline fosamil]"
17,0.111 mM,"CO/N=C(\C(=O)N[C@@H]1C(=O)N2C(C(=O)O)=C(COC(N)=O)CS[C@H]12)c1ccco1 [LF11, Cefuroxime sodium]"
18,> 1 mM,"C[n+]1ccn(C[C@@]2(C)[C@H](C(=O)[O-])N3C(=O)C[C@H]3S2(=O)=O)n1 [LF2, AAI101]"
19,> 1 mM,"Cc1nnc(SCC2=C(C(=O)O)N3C(=O)[C@@H](NC(=O)Cn4cnnn4)[C@H]3SC2)s1 [LA3, Cefazolin]"
20,> 1 mM,"CC1(C)S[C@@H]2[C@H](NC(=O)[C@H](N)c3ccccc3)C(=O)N2[C@H]1C(=O)OCOC(=O)[C@@H]1N2C(=O)C[C@H]2S(=O)(=O)C1(C)C [LE4, Sultamicillin Tosylate]"
21,> 1 mM,"CO/N=C(\C(=O)N[C@@H]1C(=O)N2C(C(=O)OCOC(=O)C(C)(C)C)=C(/C=C\c3scnc3C)CS[C@H]12)c1csc(N)n1 [LF3, Cefditoren pivoxil]"
22,> 1 mM,"CC1(C)S[C@@H]2[C@H](NC(=O)Cc3ccccc3)C(=O)N2[C@H]1C(=O)O [LH9, Penicillin G sodium salt]"
23,> 1 mM,"Cc1onc(-c2c(Cl)cccc2Cl)c1C(=O)N[C@@H]1C(=O)N2[C@@H]1SC(C)(C)[C@@H]2C(=O)O [LH7, Dicloxacillin sodium monohydrate]"
24,> 1 mM,"CO/N=C(\C(=O)N[C@@H]1C(=O)N2C(C(=O)O)=C(COC(C)=O)CS[C@H]12)c1csc(N)n1 [LA1, Cefotaxime sodium]"
25,> 1 mM,"CC1=C(C(=O)O)N2C(=O)[C@@H](NC(=O)[C@H](N)c3ccc(O)cc3)[C@H]2SC1 [LE1, Cefadroxil]"
26,> 1 mM,"N[C@@H](C(=O)N[C@@H]1C(=O)N2C(C(=O)O)=C(Cl)CS[C@H]12)c1ccccc1 [LE11, Cefaclor monohydrate]"

# The next lines start with the compound.
row,SMILES,IC50
1,"C[C@@H](O)[C@H]1C(=O)N2C(C(=O)O)=C(S[C@@H]3CN[C@H](CNS(N)(=O)=O)C3)[C@H](C)[C@H]12 [LE10, Doripenem Hydrate]",> 1 mM
2,"Cn1nnnc1SCC1=C(C(=O)O)N2C(=O)[C@@H](NC(=O)[C@H](OC=O)c3ccccc3)[C@H]2SC1 [LD4, Cefamandole nafate]",> 1 mM
3,"C[C@@H](O)[C@H]1C(=O)N2C(C(=O)O)=C(S[C@@H]3CN[C@H](CNS(N)(=O)=O)C3)[C@H](C)[C@H]12 [LE5, Doripenem]",0.148 mM
4,"Cc1onc(-c2ccccc2)c1C(=O)NC1C(=O)N2[C@@H]1SC(C)(C)[C@@H]2C(=O)O (some centres unmarked) [LH8, Oxacillin sodium]",> 1 mM
5,"Cc1onc(-c2ccccc2Cl)c1C(=O)N[C@@H]1C(=O)N2[C@@H]1SC(C)(C)[C@@H]2C(=O)O [LH2, Cloxacillin sodium monohydrate]",> 1 mM
6,"NCc1ccccc1CC(=O)N[C@@H]1C(=O)N2C(C(=O)O)=C(CSc3nnnn3CC(=O)O)CS[C@H]12 [LC10, Ceforanide]",0.378 mM
7,"C[C@@H](O)[C@H]1C(=O)N2C(C(=O)O)=C([C@H]3CCCO3)S[C@H]12 [LC7, Faropenem sodium]",> 1 mM
8,"NC(=O)c1cc[n+](CC2=C(C(=O)O)N3C(=O)[C@@H](NC(=O)[C@@H](c4ccccc4)S(=O)(=O)[O-])[C@H]3SC2)cc1 [LC1, Cefsulodine sodium]",> 1 mM
9,"Cc1cc(O)c(C(=O)N[C@@H](C(=O)N[C@@H]2C(=O)N3C(C(=O)O)=C(CSc4nnnn4C)CS[C@H]23)c2ccc(O)cc2)cn1 [LH1, Cefpiramide acid]",> 1 mM
10,"CO/N=C(\C(=O)N[C@@H]1C(=O)N2C(C(=O)[O-])=C(C[n+]3cccc4c3CCCC4)CS[C@H]12)c1csc(N)n1 [LD11, Cefquinome sulfate]",> 1 mM
11,"CO/N=C(\C(=O)N[C@@H]1C(=O)N2C(C(=O)[O-])=C(C[n+]3cccc4c3CCC4)CS[C@H]12)c1csc(N)n1 [LD3, Cefpirome sulfate]",> 1 mM
12,"CO/N=C(\C(=O)N[C@@H]1C(=O)N2C(C(=O)O)=C(CSC(=O)c3ccco3)CS[C@H]12)c1csc(N)n1 [LG1, Sodium ceftiofur]",> 1 mM
13,"Cc1nnc(SCC2=C(C(=O)O)N3C(=O)[C@@H](NC(=O)Cn4cc(Cl)c(=O)c(Cl)c4)[C@H]3SC2)s1 [LA8, Cefazedone]",> 1 mM
14,"COCC1=C(C(=O)OC(C)OC(=O)OC(C)C)N2C(=O)[C@@H](NC(=O)/C(=N\OC)c3csc(N)n3)[C@H]2SC1 (some centres unmarked) [LD2, Cefpodoxime proxetil]",> 1 mM
15,"CC/C=C(\C(=O)N[C@@H]1C(=O)N2C(C(=O)OCOC(=O)C(C)(C)C)=C(COC(N)=O)CS[C@H]12)c1csc(N)n1 [LD6, Cefcapene Pivoxil Hydrochloride]",> 1 mM
16,"CC1=C(C(=O)O)N2C(=O)C(N)C2SC1 (centres unmarked) [LB12, Cefalexine EP IMpurity B]",> 1 mM
17,"C/C=C/C1=C(C(=O)O)N2C(=O)[C@@H](NC(=O)[C@H](N)c3ccc(O)cc3)[C@H]2SC1 [LG8, Cefprozil hydrate]",> 1 mM
18,"CC(=O)OCC1=C(C(=O)O)N2C(=O)[C@@H](NC(=O)CSc3ccncc3)[C@H]2SC1 [LC8, Cephapirin Sodium]",0.496 mM
19,"O=C(O)C1=C(CSc2nnnn2CS(=O)(=O)O)CS[C@@H]2[C@H](NC(=O)[C@H](O)c3ccccc3)C(=O)N12 [LF9, Cefonicid sodium]",> 1 mM
20,"CC1(C)S[C@@H]2[C@H](NC(=O)C(c3ccccc3)S(=O)(=O)O)C(=O)N2[C@H]1C(=O)O (some centres unmarked) [LA6, Sulbenicillin Sodium]",> 1 mM

# Same assay, conditions: TDP1 IC50, 40 pM recombinant TDP1, 1 nM N14Y DNA substrate, 15 min, room temperature
row,IC50 [mM],SMILES
1,> 1,"CON=C(C(=O)NC1C(=O)N2C(C(=O)OCOC(=O)C(C)(C)C)=C(C)CSC12)c1csc(N)n1 (centres unmarked) [LB3, Cefetamet pivoxil hydrochloride]"

# Same assay, conditions: read-out: TDP1 IC50
row,IC50 [mM],SMILES
1,> 1,"CO[C@@]1(NC(=O)CSC[C@@H](N)C(=O)O)C(=O)N2C(C(=O)O)=C(CSc3nnnn3C)CS[C@@H]21 [LE3, Cefminox Sodium]"
2,0.595,"CC1(C)[C@H](C(=O)O)N2C(=O)C[C@H]2S1(=O)=O [LE7, Sulbactam]"

row,SMILES,IC50 [mM]
1,"CC(=O)OCC1=C(C(=O)O)N2C(=O)[C@@H](NC(=O)CSc3ccncc3)[C@H]2SC1 [LA7, Cephapirin Benzathine]",> 1
